Experimental data taken from patent publication US20250170132A1, “SALTS AND POLYMORPHIC FORMS OF MENIN INHIBITORS AND PHARMACEUTICAL COMPOSITIONS THEREOF” (Syndax Pharmaceuticals, Inc., priority 2023, published 2025).

Assays:
Type in all cases: physicochemical
[1] = Scale-up preparation of Form C with DVS
Method: Approximately 300 mg of Form A was weighed into a 4 mL glass vial and 2.5 mL of MeCN was added slowly to make a slurry. The sample vial was kept at 50° C. with stirring for 3 days. After 3 days, slurry material was isolated and dried at 40° C. with a N2 bleed.

[2] = Solution stability of Compound A sesquifumarate at 25° C. and 40° C.; conditions: for Appearance / Compound A Sesquifumarate Purity (Average % area) / Impurity A (Average % area) / pH: 50 mg/mL formulation
Method: The initial F1 and F2 formulations utilized Compound A sesquifumarate. The pH stability of Compound A sesquifumarate solutions was studied in water at pH 5.0, 5.5, and 6.0 over 4 weeks at 25° C. and 40° C. The desired concentration of 50 mg/mL was soluble at all pH values, although Compound A dissolution occurred more rapidly at lower pH. There was a single major degradant, designated as Impurity A (relative retention time [RRT]˜0.98).
Stability of formulations containing Compound A sesquifumarate was studied at 50 mg/mL in a formulation consisting of 0.07% advantame, 20 mM citrate, 1% grape flavor (FONA), 1% sodium chloride, and 0.02% propyl paraben at pH 6.5. Stability was measured over 4 weeks in glass vials at the accelerated condition of 25° C. Stability of the same formulation but at […] was also studied at the supra-accelerated condition of 40° C. These studies were conducted prior to preservative effectiveness testing and therefore used propyl paraben instead of the methylparaben sodium:potassium sorbate combination used in the final formulation.

[3] = Excipient compatibility study with Compound A sesquifumarate; conditions: for Change in appearance, XRPD or DSC: 8 weeks 25° C./60% RH or 4 weeks 40° C./75% RH
Text: The first activity in developing a tablet formulation was selection of excipients. The main purpose of the excipient compatibility study was to evaluate changes in related substances, specifically Impurity A (relative retention time [RRT]˜0.98). […] However, formation of this degradant is not possible in product containing Compound A citrate, as it is formed by reaction of the sesquifumarate drug substance with the double bond in fumaric acid. A secondary purpose of the compatibility study was to assess changes in Compound A assay and physical properties. Even though formation of Impurity A is not possible for Compound A citrate, chemical and physical results of this study were still used to guide tablet excipient selection.
Common excipients were evaluated as part of the excipient compatibility study. Samples were incubated at 25° C./60% RH long-term condition as well as a 40° C./75% RH accelerated condition. Individual vials were removed for analysis at 0, 4, and 8 weeks. Samples were tested for appearance, Compound A sesquifumarate assay and related substances, X-ray powder diffraction (XRPD), and differential scanning calorimetry (DSC) at T-0 and 4 weeks for both long-term and accelerated conditions, and 8 weeks for the long-term condition. At 8 weeks, the accelerated condition samples were tested for Compound A sesquifumarate assay and related substances only. Assay and related substances were tested by reversed-phase ultra-performance liquid chromatography (RP-UPLC), with adjusted sample preparation to accommodate small sample amounts. Vials of Compound A sesquifumarate alone were used as controls.

[4] = Solution stability studies at accelerated conditions, counterion adduct (Impurity A); conditions: fumarate reacts with the pyrimidine ring; in solution and solid API
Text: Compound A monocitrate monohydrate has at least two advantageously and unexpected characteristics. […] Second, in the manufacturing process, Compound A fumarate requires a separate slurrying step which results in a solvate with an organic solvent. Compound A monocitrate monohydrate salt is isolated directly from ethanol:water, no slurrying step is required. […] Additionally, the Compound A monocitrate forms a monohydrate instead of a solvate with one or more organic molecules.
Although this degradation pathway is more accelerated in solution it was also observed in the solid API. Formation of Impurity A was the reason why Compound A sesquifumarate API and drug product were stored at refrigerated temperatures.

[5] = Aqueous solubility of Compound A salts
Method: Solubility of Compound A citrate was determined in 3 different types of matrices: unbuffered water, citrate-buffered solutions from pH 3 to 6, and formulations consisting of citrate, advantame, methylparaben sodium, potassium sorbate, and sodium chloride at pH ranging from 3 to 6. Solubility in unbuffered water at ambient temperature was 38.5 mg/mL.
The target pH was reassessed when the F3 formulation was developed. Compound A citrate solubility studies were performed initially in simple buffered solutions to assess solubility trends as a function of pH. […] The target concentration of Compound A was therefore changed to 40 mg/mL as a compromise between drug substance and preservatives dissolution rate and stability.

[6] = Form C screening experiments
[7] = Exp. 1/5: reactive crystallization, material 166 mg, citric acid 51 mg, MeCN 1.0 mL, RT
[8] = Exp. 2/6: reactive crystallization, material 166 mg, citric acid 51 mg, EtOAc 1.0 mL, RT
[9] = Exp. 3/7: reactive crystallization, material 166 mg, citric acid 51 mg, MeCN 1.0 mL, 50 °C
[10] = Exp. 4/8: reactive crystallization, material 166 mg, citric acid 51 mg, EtOAc 1.0 mL, 50 °C

CC#N.CCN(C(=O)c1cc(F)ccc1Oc1cncnc1N1CC2(CCN(CC3CCC(NS(=O)(=O)CC)CC3)CC2)C1)C(C)C.O=C(O)CC(O)(CC(=O)O)C(=O)O (stereo not shown) [Compound A citrate Form C]
DVS (weight gain between 30%-80% RH) ([1]; 1st adsorption cycle): 1.6% | DVS (weight gain between 30%-80% RH) ([1]; 2nd adsorption cycle): 6.1% | Post DVS form ([1]; after DVS): changed to Form-A

CCN(C(=O)c1cc(F)ccc1Oc1cncnc1N1CC2(CCN(C[C@H]3CC[C@H](NS(=O)(=O)CC)CC3)CC2)C1)C(C)C.CCN(C(=O)c1cc(F)ccc1Oc1cncnc1N1CC2(CCN(C[C@H]3CC[C@H](NS(=O)(=O)CC)CC3)CC2)C1)C(C)C.O=C(O)/C=C/C(=O)O.O=C(O)/C=C/C(=O)O.O=C(O)/C=C/C(=O)O [Compound A sesquifumarate]
Appearance ([2]; 25° C., 1 week): Clear | Compound A Sesquifumarate Purity (Average % area) ([2]; 25° C., 1 week): 99.77 % area | Impurity A (Average % area) ([2]; 25° C., 1 week): 0.14 % area | pH ([2]; 25° C., 1 week): 6.6 | Appearance ([2]; 25° C., 2 weeks): Clear | Compound A Sesquifumarate Purity (Average % area) ([2]; 25° C., 2 weeks): 99.78 % area | Impurity A (Average % area) ([2]; 25° C., 2 weeks): 0.13 % area | pH ([2]; 25° C., 2 weeks): 6.6 | Appearance ([2]; 25° C., 4 weeks): Clear | Compound A Sesquifumarate Purity (Average % area) ([2]; 25° C., 4 weeks): 99.78 % area | Impurity A (Average % area) ([2]; 25° C., 4 weeks): 0.14 % area | pH ([2]; 25° C., 4 weeks): 6.6 | Appearance ([2]; 25° C., time 0): Clear | Compound A Sesquifumarate Purity (Average % area) ([2]; 25° C., time 0): 99.78 % area | Impurity A (Average % area) ([2]; 25° C., time 0): 0.14 % area | pH ([2]; 25° C., time 0): 6.5 | Appearance ([2]; 40° C., 1 week): Clear | Compound A Sesquifumarate Purity (Average % area) ([2]; 40° C., 1 week): 99.75 % area | Impurity A (Average % area) ([2]; 40° C., 1 week): 0.17 % area | pH ([2]; 40° C., 1 week): 6.2 | Appearance ([2]; 40° C., 2 weeks): Clear | Compound A Sesquifumarate Purity (Average % area) ([2]; 40° C., 2 weeks): 99.68 % area | Impurity A (Average % area) ([2]; 40° C., 2 weeks): 0.24 % area | pH ([2]; 40° C., 2 weeks): 6.2 | Appearance ([2]; 40° C., 4 weeks): Clear | Compound A Sesquifumarate Purity (Average % area) ([2]; 40° C., 4 weeks): 99.58 % area | Impurity A (Average % area) ([2]; 40° C., 4 weeks): 0.34 % area | pH ([2]; 40° C., 4 weeks): 6.3 | Appearance ([2]; 40° C., time 0): Clear | Compound A Sesquifumarate Purity (Average % area) ([2]; 40° C., time 0): 99.77 % area | Impurity A (Average % area) ([2]; 40° C., time 0): 0.14 % area | pH ([2]; 40° C., time 0): 6.2 | Impurity A formation ([2]; water at pH 5.0, 5.5, 6.0, 4 weeks, 25° C. and 40° C.): increased in a temperature- and time-dependent manner | solubility ([2]; water at pH 5.0, 5.5 and 6.0): ≥ 50 mg/mL | Change in appearance, XRPD or DSC ([3]; binary mixtures with five fillers): No change | Impurity A ([3]; control sample and filler mixtures): increased in both control sample and excipient mixtures | Trends in assay or related substances ([3]; four disintegrants): No trends | Change in appearance, XRPD or DSC ([3]; four disintegrants): No change | Trends in assay or related substances ([3]; glidant and lubricants): No trends | Change in appearance, XRPD or DSC ([3]; glidant and lubricants): No change | Trends in assay or related substances ([3]; three binders): No trends | Change in appearance, XRPD or DSC ([3]; three binders): No change | Trends in assay or related substances ([3]; two alkalizers): No trends | Change in appearance, XRPD or DSC ([3]; two alkalizers): No change | Impurity A formation ([3]; with Avicel PH 101, Avicel PH113, Avicel DG): did not increase formation of Impurity A | Impurity A formation ([3]; with polyols mannitol and sorbitol): accelerate the degradant formation | Chemical degradation forming impurity A [4]: subject to a chemical degradation | Biopharmaceutical Classification System solubility definition [5]: highly soluble | pH of solution ([5]; 50 mg/mL Compound A solution in water): approximately 3.5

CCN(C(=O)c1cc(F)ccc1Oc1cncnc1N1CC2(CCN(C[C@H]3CC[C@H](NS(=O)(=O)CC)CC3)CC2)C1)C(C)C [FB-1]
Crystal Form [6, 7]: Form A, w/pattern shift | Crystal Form [6, 8]: FB-1 w/extra peaks | Crystal Form [6, 9]: Form A → Form C | Crystal Form [6, 10]: Essentially Form C | Crystal Form ([6]; Exp. 11: slurry conditioning, 166 mg, no citric acid, MeCN 1.0 mL, 50 °C): FB-1 | Crystal Form ([6]; Exp. 12: slurry conditioning, 166 mg, no citric acid, EtOAc 1.0 mL, 50 °C): FB-1

CCN(C(=O)c1cc(F)ccc1Oc1cncnc1N1CC2(CCN(C[C@H]3CC[C@H](NS(=O)(=O)CC)CC3)CC2)C1)C(C)C [FB-2]
Crystal Form [6, 7]: Form A, w/pattern shift | Crystal Form [6, 8]: FB-2 w/extra peaks | Crystal Form [6, 9]: Form A → Form C | Crystal Form [6, 10]: Form A | Crystal Form ([6]; Exp. 9: slurry conditioning, 166 mg, no citric acid, MeCN 1.0 mL, RT): FB-2 | Crystal Form ([6]; Exp. 10: slurry conditioning, 166 mg, no citric acid, EtOAc 1.0 mL, RT): FB-2 | Crystal Form ([6]; Exp. 13: reactive crystallization, citric acid 15 mg, MeCN 0.5 mL, RT (Form C in MeCN; Hazy → FB + Acid)): Form C | Crystal Form ([6]; Exp. 14: reactive crystallization, citric acid 15 mg, MeCN 0.5 mL, RT (FB + Acid in MeCN → CL → Form C)): Form C | Crystal Form ([6]; Exp. 15: citric acid 30 mg, MeCN 0.5 + 1.5 mL, RT, 1:2 of FB:Acid): Form C
